Assays:
[1] = tested on: Lipopolysaccharide (LPS); assay: Displacement of BODIPY-TR-cadaverin from Pseudomonas aeruginosa Lipopolysaccharide at 16 times of MIC incubated for 30 mins by fluorescence based microplate reader analysis relative to control
[2] = tested on: Staphylococcus aureus; assay: Antibacterial activity against Staphylococcus aureus ATCC 29213 assessed as inhibition of bacterial growth by measuring salt resistance incubated for 24 hrs in the presence of 12.5 ug/ml Zn2+ and 24.3 ug/ml Mg2+ by Muller hinton broth based dilution assay; format: functional
[3] = tested on: Staphylococcus aureus; assay: Antibacterial activity against Staphylococcus aureus ATCC 29213 assessed as inhibition of bacterial growth by measuring salt resistance incubated for 24 hrs in the presence of 12.5 ug/ml Zn2+ and 175.5 ug/ml K+ by Muller hinton broth based dilution assay; format: functional

CC(C)=CCn1c2ccccc2c2c(OCC(O)CN(Cc3ccccn3)Cc3ccccn3)cccc21 (stereo not drawn)
Activity [1]: 2.47%
MIC [2]: 1.56 µg/mL
MIC [3]: 1.56 µg/mL
